Six compounds from ChEMBL document CHEMBL1149204, “A new lead compound for abscisic acid biosynthesis inhibitors targeting 9-cis-epoxycarotenoid dioxygenase” (Bioorg Med Chem Lett, 2004) can be followed below.

Assay [1] relates to Spinacia oleracea. The assay can be described thus: Effect of compound at 100 uM concentration on ABA accumulation in spinachleaf slices determined as fresh weight of leaves (Experiment 2). The class given is functional.
Assay [2] can be described thus: Inhibitory activity was determined against 9-cis-epoxycarotenoid dioxygenase (NCED) expressed in Escherichia coli in presence of 9''-cis-neo-xanthin.
The test system of assay [3] is Spinacia oleracea. Kind of assay: Effect of compound at 100 uM concentration on ABA accumulation in spinachleaf slices determined as fresh weight of leaves (Experiment 1). The class given is functional.
For assay [4], the system named is Spinacia oleracea. The assay can be described thus: Effect of compound at 100 uM concentration on ABA accumulation in spinachleaf slices determined as fresh weight of leaves (Experiment 3). The class given is functional.
The test system of assay [5] is Spinacia oleracea. Kind of assay: Effect of compound at 0.4 M concentration on ABA accumulation in spinachleaf slices determined as fresh weight of leaves (Experiment 1). The class given is functional.
Assay [6] concerns Spinacia oleracea. Kind of assay: Effect of compound at 0.4 M concentration on ABA accumulation in spinachleaf slices determined as fresh weight of leaves (Experiment 2). The class given is functional.
Assay [7] relates to Spinacia oleracea. The assay can be described thus: Effect of compound at 0.4 M concentration on ABA accumulation in spinachleaf slices determined as fresh weight of leaves (Experiment 3). The class given is functional.

For `COC(=O)CN(C/C=C/c1ccc(OC)c(OC)c1)Cc1ccc(F)cc1`, the figures for the “ABA content per fresh weight” value in assay [1], in assay [3] and in assay [4] were 82.8 ng/g, 14 ng/g and 65.6 ng/g, respectively. For the same compound, the IC50 in assay [2] amounted to 55 µM.
As to `COc1ccc(CCN(C)Cc2ccc(OC)c(OC)c2)cc1`, in assay [2], the IC50 was 87 µM.
With `Oc1ccc(CCNCc2ccccc2O)cc1`, in assay [2], the IC50 worked out at 160 µM.
As for `CC(Cc1ccc(O)c(O)c1)C(C)Cc1ccc(O)c(O)c1` (configuration not stated) [NORDIHYDROGUAIARETIC ACID], the “ABA content per fresh weight” value stood at 165.3 ng/g in assay [1], 20.5 ng/g in assay [3] and 128.5 ng/g in assay [4]. For the same compound, the IC50 in assay [2] amounted to 183 µM.
For the compound `OC[C@@H](O)[C@@H](O)[C@H](O)[C@H](O)CO` [MANNITOL], the Fresh weight in assay [5] was 22.7 ng/g; in assay [6] it was 178.4 ng/g; in assay [7], 134.9 ng/g.
As to `COc1ccc(NC/C=C/c2ccc(OC)c(OC)c2)cc1`, the entries for the “ABA content per fresh weight” value in assay [1], in assay [3] and in assay [4] were 168.7 ng/g, 26.1 ng/g and 137.1 ng/g, respectively. In addition, the IC50 in assay [2] worked out at 145 µM.
